One experiment relates to transplanted skin. The experiment is described as follows: allogeneic skin transplantation, Balb/c to B6. It is filed as in vivo, mouse. Particulars: used for 2 weeks then stopped. The text has this: (§1) The paired mice for transplantation: The donor mouse is a balb/c mouse; The recipient mouse is B6 mouse. Transplant the donor's skin or heart separately to the recipient. After skin transplantation, INNA1605 (TJ-M2010-5) was continuously used for 2 weeks and then stopped. About 38% of the transplanted skin was permanently non-rejection. After administering TJ-M2010-5 for two weeks after allogeneic heart transplantation, 60% of the heart grafts were permanently not rejected. In these surviving recipient mice (non-rejection), the hearts of the same donor mice were transplanted for a second time without any treatment. The result was 100% non-rejection of the heart, confirming the development of immune tolerance against the same antigen (see FIGS. 34 and 35).

The subject of experiment [1] is mouse spleen derived B cells. Put plainly: R848 induced lupus like B cell immune disorder model in vitro. It is filed as cell-based. Particulars: TJ-5 10 or 20 μmol/L 3 hours before R848 500 ng/ml 48 hours. How it is done:
Preparation and grouping of an in vitro lupus like B cell immune disorder model:
Model preparation: Mouse spleen derived B cells were purified using a magnetic bead sorting kit and cultured in vitro. Stimulating factor CD40L was added to maintain the long-term survival of B cells in vitro. Lupus like B cell immune disorders were induced by stimulating B cells with R848 (500 ng/ml) for 48 hours.
The experiment is divided into four groups, namely: • Control group (without any treatment, normal cultured B cells); • R848 group (model group): Stimulate B cells with R848 (500 ng/ml) for 48 hours; • TJ-5 (10 μM) Group: First use TJ-5 (10 μmol/L) Pre stimulate B cells for 3 hours, then stimulate B cells with R848 (500 ng/ml) for 48 hours; • TJ-5 (20 μM) Group: First use TJ-5 (20 μmol/L) Pre stimulate B cells […] for 3 hours, then stimulate B cells with R848 (500 ng/ml) for 48 hours.
Collect cells and cell culture supernatant for detection after R848 stimulation is completed.

In a further experiment the test system is APP/PS1 transgenic mice. Put plainly: Alzheimer's disease model, APP/PS1 transgenic mice. It is filed as in vivo, mouse. How it is done: Preparation and grouping of Alzheimer's disease mouse models:
The experiment is divided into three groups, namely:
Drug group (APP/PS1+INNA1605 group): APP/PSI transgenic mice were given INNA1605 at a dose of 50 mg/Kg/day (twice a day, 25 mg/Kg each time, intraperitoneal injection once, gavage once);
Model group (APP/PSI group): APP/PSI transgenic mice were given an equal dose of solvent (ddH2O);
Control group: C57BL/6 mice were given an equal dose of solvent (ddH2O).
At 9 months of age, Morris water maze test was conducted to evaluate the spatial learning and memory abilities of APP/PSI mice. After the behavioral experiment was completed, pentobarbital sodium (100 mg/kg) was injected into the abdominal cavity for deep anesthesia. After fully exposing the heart and aorta through thoracotomy, a 20 ml syringe was inserted into the aorta with an infusion needle from the apex of the heart. The needle was fixed and the right atrium was cut open. 30 ml of physiological saline at 4° C. was perfused through the aorta until most of the blood flowed out. The hippocampus and cortical tissue were carefully and quickly separated and stored at −80° C.for subsequent biochemical analysis. The remaining mice were first perfused with 30 ml of 4° C. physiological saline, followed by 30 ml of pre-cooled 4% paraformaldehyde. Then, the whole brain was removed and fixed with 4% paraformaldehyde for another 48 hours. After dehydration, transparency, paraffin embedding, and sectioning, immunohistochemical analysis was performed.

Experiment [2] relates to H22 hepatocellular carcinoma cells. Put plainly: subcutaneous H22 hepatocellular carcinoma implantation. It is filed as in vivo, mouse. Particulars: balb/c mice. The text has this: H22 hepatocellular carcinoma cells were subcutaneously implanted in balb/c mice and allowed to grow freely. The animals were divided into two groups: the INNA1605 (TJ-M2010-5) group and the non-drug control group.

The subject of another experiment is allergic rhinitis model. The experiment is described as follows: OVA allergic rhinitis (AR) model. The experiment is classed as in vivo, mouse. How it is done: To establish a model of AR, mice were injected intraperitoneally with 25 μg ovalbumin (OVA) and 2 mg aluminum hydroxide on days 0, 7, and 14 to promote primary sensitization. One week after the primary sensitization, the secondary immunization was built. Mice were intranasally challenged with 3% OVA daily from 21 to 35 days. Animals were divided into three groups: Sham group, AR group and AR+TJ-5 group. After 35 days of OVA administration, the number of mice rubbing and sneezing within 10 min was recorded. Nasal lavage fluid was collected 12 h after OVA treatment under anesthesia.

For a further experiment, the system named is heart grafts. Put plainly: allogeneic heart transplantation, Balb/c to B6. The experiment is classed as in vivo, mouse.
Text: as §1

A further experiment concerns CSDS depression model. The experiment is described as follows: Frustrative Depression (CSDS) model. It is filed as in vivo, mouse. Particulars: C57BL/6J mice. The procedure:
Male C57BL/6J mice (6-7 weeks old, 18-20 g weight) and male CD-1 mice ([…] old) were used to create a model of Frustrative Depression (CSDS). C57BL/6J mice were attacked by different CD-1 […] for 10 minutes every day for 10 consecutive days. At night, the two types of mice were kept in the same cage separated by a perforated transparent glass to maintain the pressure of the attack.

The test system of experiment [3] is bone marrow derived macrophages. Put plainly: bone marrow derived macrophage pyroptosis model (LPS + ATP). It is filed as cell-based. How it is done:
Preparation and grouping of bone marrow derived macrophage pyroptosis model:
Model preparation: After LPS (500 ng/ml) stimulation of bone marrow derived macrophages for 6 hours, ATP (5 mmol/L) stimulation for 2 hours, followed by cell collection and supernatant detection.
The experiment was divided into four groups, namely: • Control group (normal cell culture medium), • Model group (with LPS and ATP stimulation added to the culture medium), • TJ-5 (10 μmol/L) group (2 hours before LPS stimulation, administer 10 μmol/L TJ-5 drug stimulation), • TJ-5 (30 μmol/L) group (2 hours before LPS stimulation, administer 30 μmol/L TJ-5 drug stimulation).
Collect cells and their supernatant for detection at the endpoint of the experiment.

The mark [4] stands for this setting: immunohistochemistry, vs model group.
Setting [5] is: TJ-5 10 or 30 μmol/L before LPS + ATP.

Consider `O=C(CCN1CCN(Cc2ccccc2)CC1)Nc1nc(-c2ccccc2)cs1` [INNA1605, 3-(4-benzylpiperazine-1-yl)-N-(4-phenylthiazole-2-yl) propionamide], for which, in the experiment on transplanted skin, the “transplanted skin permanently non-rejection” value is listed as “About 38%”. In addition, in experiment [1], the “abnormal activation and differentiation of B cells” value is “can inhibit abnormal activation and differentiation of B cells”; the “secretion of B cell autoantibodies and inflammatory factors” value is “inhibit the secretion of B cell autoantibodies and inflammatory factors”. Besides, in the experiment with APP/PS1 transgenic mice (50 mg/Kg/day, 9 months of age), the “memory (Morris water maze)” value is given as “better memory than APP/PS1 transgenic mice treated with only ddH2O”. Also, in the experiment with APP/PS1 transgenic mice (setting [4]), the “Iba-1 positive microglia (whole brain, cortex, hippocampus)” value is “significantly reduced compared to the model group” and the “brain Aβ deposition (whole brain, cortex, hippocampus)” value is given as “significantly less”. The tumor size result in experiment [2] is “significantly smaller than that in the control group”. In addition, the “levels of IL-4, IL-1β, IL-18 and TNF-α in nasal mucosa” value with allergic rhinitis model (mouse, in vivo) was “decreased”. In addition, the “sneezing and nasal rubbing” value in the experiment with allergic rhinitis model (within 10 min after 35 days of OVA) was “relieved these symptoms”. Further, the “heart grafts permanently not rejected” value in the experiment with heart grafts (administered for two weeks) worked out at 60%. In the experiment on heart grafts (surviving recipient mice, second transplant without any treatment), the “non-rejection of second heart of the same donor mice” value is listed as 100%. The “induced depressive behavior and neuroinflammation in the brain” value in the experiment on CSDS depression model was “significantly improves induced depressive behavior and neuroinflammation in the brain”. Further, in experiment [3] (TJ-5 10 or 30 μmol/L 2 hours before LPS 500 ng/ml 6 hours + ATP 5 mmol/L 2 hours), the “apoptosis (PI+ cells) of bone marrow derived macrophages” value was “can inhibit the apoptosis of bone marrow derived macrophages induced by LPS and ATP”. In experiment [3] (setting [5]), the “activation and cleavage of GSDMD” value was “significantly inhibits the activation and cleavage of GSDMD”; the “assembly and activation of NLRP3 inflammasomes” value was “can block the assembly and activation of NLRP3 inflammasomes”; the “classical and non classical cell pyroptosis pathways” value was “inhibit both classical and non classical cell pyroptosis pathways”; the “maturation and release of Pro-IL-1b and Pro-IL-18” value was “inhibiting the maturation and release”. Besides, in experiment [3] (setting [5]), the “secretion of LDH in cell culture supernatant” value is recorded as “reduce the secretion of LDH” and the “secretion of various inflammatory factors” value was “reducing the secretion of various inflammatory factors”.

For the origin of these results see US20240180898A1, “USE OF AMINOTHIAZOLE DERIVATIVE IN TREATMENT OF IMMUNE INFLAMMATION” (INNAMUNE PHARMACEUTICAL CO. LTD., priority 2021, published 2024).
